Source: ChEMBL document CHEMBL1909046, “DrugMatrix in vitro pharmacology data”

Assays:
[1] = molecular target: T1, Receptor-type tyrosine-protein phosphatase C (Homo sapiens, UniProt P08575); set-up: species or system Escherichia coli;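 further: inhibition of CD45 enzyme activity measured using DiFMUP as substrate; in other assays of this panel Not Active means under 50% inhibition at 10 µM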
T1 sequence (P08575 whole entry): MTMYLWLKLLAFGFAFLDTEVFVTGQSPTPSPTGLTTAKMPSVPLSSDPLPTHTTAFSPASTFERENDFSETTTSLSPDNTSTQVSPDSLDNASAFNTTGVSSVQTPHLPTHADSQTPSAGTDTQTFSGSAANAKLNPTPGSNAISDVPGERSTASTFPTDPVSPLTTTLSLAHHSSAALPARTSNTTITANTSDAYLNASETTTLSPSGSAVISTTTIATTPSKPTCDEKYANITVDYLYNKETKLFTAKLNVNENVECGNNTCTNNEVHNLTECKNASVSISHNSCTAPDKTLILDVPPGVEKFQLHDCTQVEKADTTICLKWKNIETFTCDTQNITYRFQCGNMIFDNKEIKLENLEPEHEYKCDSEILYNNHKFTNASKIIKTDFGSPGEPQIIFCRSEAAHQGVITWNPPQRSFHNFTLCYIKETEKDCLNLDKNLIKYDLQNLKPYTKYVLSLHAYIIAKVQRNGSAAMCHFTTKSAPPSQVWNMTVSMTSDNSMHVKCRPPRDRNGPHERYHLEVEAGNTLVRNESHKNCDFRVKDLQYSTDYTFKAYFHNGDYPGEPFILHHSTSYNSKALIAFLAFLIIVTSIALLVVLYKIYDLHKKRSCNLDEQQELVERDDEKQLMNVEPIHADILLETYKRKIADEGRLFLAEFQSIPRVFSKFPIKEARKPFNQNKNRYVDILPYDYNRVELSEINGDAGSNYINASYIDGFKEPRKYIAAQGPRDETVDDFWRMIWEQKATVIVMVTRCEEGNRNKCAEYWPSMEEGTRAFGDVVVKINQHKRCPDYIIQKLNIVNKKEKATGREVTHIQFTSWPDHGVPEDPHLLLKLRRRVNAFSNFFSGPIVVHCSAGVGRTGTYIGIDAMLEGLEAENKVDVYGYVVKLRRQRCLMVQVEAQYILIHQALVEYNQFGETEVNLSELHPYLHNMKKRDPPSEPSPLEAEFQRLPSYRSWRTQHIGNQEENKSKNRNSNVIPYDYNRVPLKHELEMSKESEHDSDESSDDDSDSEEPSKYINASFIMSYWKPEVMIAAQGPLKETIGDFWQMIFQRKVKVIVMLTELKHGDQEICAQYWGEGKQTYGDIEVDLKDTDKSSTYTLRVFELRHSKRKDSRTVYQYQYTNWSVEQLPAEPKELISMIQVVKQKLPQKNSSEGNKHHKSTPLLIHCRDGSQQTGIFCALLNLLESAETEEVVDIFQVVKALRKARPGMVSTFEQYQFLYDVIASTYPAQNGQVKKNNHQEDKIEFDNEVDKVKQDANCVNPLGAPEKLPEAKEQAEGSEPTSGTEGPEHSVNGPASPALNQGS

[2] = molecular target: Voltage-gated inwardly rectifying potassium channel KCNH2 (Homo sapiens, UniProt Q12809); settings: hek293; further: in other assays of this panel Not Active means under 50% inhibition at 10 µM
[3] = DRUGMATRIX: Atrial Natriuretic Factor (ANF) radioligand binding (ligand: [125I] ANF (rat)); format: cell membranes, Cavia porcellus, Dunkin-Hartley, Adrenal gland, Membrane; settings: Not Active = under 50% inhibition at 10 µM
[4] = molecular target: Platelet-activating factor receptor (Homo sapiens, UniProt P25105); assay: biochemical; format: tissue-based; settings: platelet; further: in other assays of this panel Not Active means under 50% inhibition at 10 µM
[5] = molecular target: T2, Thromboxane-A synthase (Homo sapiens, UniProt P24557); assay: biochemical; format: tissue-based, Platelet; settings: platelet;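 further: enzyme inhibition assay with PGH2 supplied as substrate; in other assays of this panel Not Active means under 50% inhibition at 10 µM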
T2 sequence (P24557 whole entry): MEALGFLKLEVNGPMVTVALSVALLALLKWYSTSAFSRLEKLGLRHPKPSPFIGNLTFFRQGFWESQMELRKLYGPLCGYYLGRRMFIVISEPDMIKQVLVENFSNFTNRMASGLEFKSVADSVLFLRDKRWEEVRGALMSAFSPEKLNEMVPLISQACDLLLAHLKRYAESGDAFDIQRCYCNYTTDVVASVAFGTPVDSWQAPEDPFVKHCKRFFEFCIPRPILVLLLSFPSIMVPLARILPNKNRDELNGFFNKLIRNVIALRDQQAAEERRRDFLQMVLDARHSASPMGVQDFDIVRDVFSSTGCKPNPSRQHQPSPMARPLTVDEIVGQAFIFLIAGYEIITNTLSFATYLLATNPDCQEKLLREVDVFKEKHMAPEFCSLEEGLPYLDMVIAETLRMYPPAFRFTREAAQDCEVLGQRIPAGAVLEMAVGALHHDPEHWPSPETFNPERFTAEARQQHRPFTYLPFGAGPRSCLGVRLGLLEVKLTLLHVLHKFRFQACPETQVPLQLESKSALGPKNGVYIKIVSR

[6] = molecular target: Sodium-dependent noradrenaline transporter (Homo sapiens, UniProt P23975); assay: DRUGMATRIX: Norepinephrine Transporter radioligand binding (ligand: [125I] RTI-55); format: cell membranes, MDCK, Membrane; settings: mdck; Not Active = under 50% inhibition at 10 µM
[7] = molecular target: T3, 5-hydroxytryptamine receptor 2C (Homo sapiens, UniProt P28335); assay: DRUGMATRIX: Serotonin (5-Hydroxytryptamine) 5-HT2C radioligand binding (ligand: [3H] Mesulergine); format: cell membranes, CHO-K1, Membrane; settings: cho-k1; Not Active = under 50% inhibition at 10 µM
T3 sequence (P28335 whole entry): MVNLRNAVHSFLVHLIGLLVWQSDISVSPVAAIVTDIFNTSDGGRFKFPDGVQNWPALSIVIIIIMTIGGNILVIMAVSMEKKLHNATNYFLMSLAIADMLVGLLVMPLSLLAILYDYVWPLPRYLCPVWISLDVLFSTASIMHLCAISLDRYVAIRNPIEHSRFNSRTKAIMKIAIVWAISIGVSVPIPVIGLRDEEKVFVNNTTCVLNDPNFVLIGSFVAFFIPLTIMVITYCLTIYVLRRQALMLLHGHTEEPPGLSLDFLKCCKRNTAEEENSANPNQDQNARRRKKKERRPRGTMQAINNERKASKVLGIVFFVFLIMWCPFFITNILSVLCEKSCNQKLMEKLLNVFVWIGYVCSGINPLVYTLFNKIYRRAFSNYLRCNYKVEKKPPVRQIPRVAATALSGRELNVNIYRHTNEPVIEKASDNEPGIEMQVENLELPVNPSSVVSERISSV

[8] = molecular target: Sigma non-opioid intracellular receptor 1 (Homo sapiens, UniProt Q99720); assay: DRUGMATRIX: Sigma1 radioligand binding (ligand: [3H] Haloperidol); format: cell membranes, Jurkat, Membrane; settings: jurkat; Not Active = under 50% inhibition at 10 µM
[9] = molecular target: Adenosine receptor A2a (Homo sapiens, UniProt P29274); assay: DRUGMATRIX: Adenosine A2A radioligand binding (ligand: […]); format: cell membranes, HEK293, Membrane; settings: hek293; Not Active = under 50% inhibition at 10 µM
[10] = DRUGMATRIX: Glutamate, NMDA, Agonism radioligand binding (ligand: [3H] CGP-39653); format: cell membranes, Rattus norvegicus, Wistar, Cerebral cortex, Membrane; settings: Not Active = under 50% inhibition at 10 µM

Chain of Sodium-dependent noradrenaline transporter (P23975 whole entry): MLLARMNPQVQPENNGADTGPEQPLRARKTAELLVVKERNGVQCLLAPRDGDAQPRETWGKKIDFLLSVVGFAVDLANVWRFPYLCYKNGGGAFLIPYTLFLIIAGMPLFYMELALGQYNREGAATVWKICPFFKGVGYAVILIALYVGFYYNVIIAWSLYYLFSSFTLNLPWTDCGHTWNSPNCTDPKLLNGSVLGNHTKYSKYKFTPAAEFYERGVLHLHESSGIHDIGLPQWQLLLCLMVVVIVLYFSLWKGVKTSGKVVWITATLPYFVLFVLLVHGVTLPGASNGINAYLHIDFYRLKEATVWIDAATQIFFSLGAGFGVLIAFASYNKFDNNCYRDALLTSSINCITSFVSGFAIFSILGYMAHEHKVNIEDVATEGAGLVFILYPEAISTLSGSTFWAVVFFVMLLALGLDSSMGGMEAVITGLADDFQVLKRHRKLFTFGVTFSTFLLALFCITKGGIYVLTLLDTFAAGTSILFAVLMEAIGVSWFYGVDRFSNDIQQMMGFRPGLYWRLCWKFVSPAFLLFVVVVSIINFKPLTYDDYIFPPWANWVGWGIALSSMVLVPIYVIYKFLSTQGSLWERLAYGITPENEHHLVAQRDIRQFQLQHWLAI
Chain of Sigma non-opioid intracellular receptor 1 (Q99720 whole entry): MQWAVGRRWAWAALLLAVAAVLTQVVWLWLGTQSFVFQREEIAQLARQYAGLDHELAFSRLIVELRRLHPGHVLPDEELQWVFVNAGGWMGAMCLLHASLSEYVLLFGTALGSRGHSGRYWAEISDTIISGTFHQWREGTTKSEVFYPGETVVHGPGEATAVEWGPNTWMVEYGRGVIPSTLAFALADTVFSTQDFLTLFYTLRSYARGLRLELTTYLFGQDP
Chain of Platelet-activating factor receptor (P25105 whole entry): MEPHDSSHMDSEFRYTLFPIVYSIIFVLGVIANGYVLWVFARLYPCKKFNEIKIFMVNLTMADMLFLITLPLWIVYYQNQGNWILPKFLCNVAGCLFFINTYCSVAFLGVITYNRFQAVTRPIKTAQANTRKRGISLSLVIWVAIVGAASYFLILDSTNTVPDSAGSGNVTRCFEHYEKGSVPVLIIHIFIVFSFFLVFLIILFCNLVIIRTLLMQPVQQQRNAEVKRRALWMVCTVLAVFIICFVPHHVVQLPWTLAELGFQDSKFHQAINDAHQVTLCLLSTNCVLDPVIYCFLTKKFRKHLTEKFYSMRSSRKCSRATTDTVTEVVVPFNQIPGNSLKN
Chain of Voltage-gated inwardly rectifying potassium channel KCNH2 (Q12809 whole entry): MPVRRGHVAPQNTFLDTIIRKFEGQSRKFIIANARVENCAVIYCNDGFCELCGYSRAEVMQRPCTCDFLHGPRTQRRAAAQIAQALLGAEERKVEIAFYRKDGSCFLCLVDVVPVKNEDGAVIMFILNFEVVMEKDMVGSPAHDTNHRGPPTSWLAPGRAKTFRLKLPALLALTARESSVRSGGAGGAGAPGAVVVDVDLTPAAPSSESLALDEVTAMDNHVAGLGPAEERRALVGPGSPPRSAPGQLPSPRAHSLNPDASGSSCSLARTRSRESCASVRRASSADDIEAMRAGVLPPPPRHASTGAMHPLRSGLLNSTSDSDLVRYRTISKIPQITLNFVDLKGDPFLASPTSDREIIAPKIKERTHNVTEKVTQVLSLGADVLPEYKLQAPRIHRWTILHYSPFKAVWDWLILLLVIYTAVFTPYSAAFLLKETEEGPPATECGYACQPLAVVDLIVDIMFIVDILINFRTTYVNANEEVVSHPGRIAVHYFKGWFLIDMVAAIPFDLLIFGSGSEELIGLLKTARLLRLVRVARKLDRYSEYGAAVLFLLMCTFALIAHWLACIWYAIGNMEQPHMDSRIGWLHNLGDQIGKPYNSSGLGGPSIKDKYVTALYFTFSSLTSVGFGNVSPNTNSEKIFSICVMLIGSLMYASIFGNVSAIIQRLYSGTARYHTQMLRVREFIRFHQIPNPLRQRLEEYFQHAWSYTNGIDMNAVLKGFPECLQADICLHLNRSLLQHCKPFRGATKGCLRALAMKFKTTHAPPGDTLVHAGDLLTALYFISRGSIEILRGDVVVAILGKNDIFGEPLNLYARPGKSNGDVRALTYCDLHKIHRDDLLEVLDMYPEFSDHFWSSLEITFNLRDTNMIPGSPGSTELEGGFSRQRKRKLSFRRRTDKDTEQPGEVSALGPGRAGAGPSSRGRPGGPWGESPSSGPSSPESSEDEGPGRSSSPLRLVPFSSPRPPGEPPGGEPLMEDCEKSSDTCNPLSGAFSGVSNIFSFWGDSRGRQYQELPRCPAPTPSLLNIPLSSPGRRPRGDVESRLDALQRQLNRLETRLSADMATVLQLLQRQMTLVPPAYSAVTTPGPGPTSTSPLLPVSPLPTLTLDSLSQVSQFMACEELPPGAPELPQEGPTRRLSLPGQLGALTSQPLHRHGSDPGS
Chain of Adenosine receptor A2a (P29274 whole entry): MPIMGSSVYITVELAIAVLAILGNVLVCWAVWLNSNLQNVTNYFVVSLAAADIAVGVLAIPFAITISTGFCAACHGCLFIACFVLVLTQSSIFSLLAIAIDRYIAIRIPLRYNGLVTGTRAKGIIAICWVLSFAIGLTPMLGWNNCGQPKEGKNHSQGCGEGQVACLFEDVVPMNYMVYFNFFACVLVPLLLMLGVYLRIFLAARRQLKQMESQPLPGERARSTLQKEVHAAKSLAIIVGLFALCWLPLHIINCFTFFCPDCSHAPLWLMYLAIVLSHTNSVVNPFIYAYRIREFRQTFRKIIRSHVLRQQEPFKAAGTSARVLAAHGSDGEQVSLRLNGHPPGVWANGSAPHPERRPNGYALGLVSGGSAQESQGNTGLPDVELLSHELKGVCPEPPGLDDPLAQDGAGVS

COc1ccc2cc(CC(=O)O)ccc2c1
Not Active: IC50 [1] | IC50 [2] | Ki [2] | IC50 [3] | Ki [3] | IC50 [4] | IC50 [5] | IC50 [6] | IC50 [7] | IC50 [8] | IC50 [9] | IC50 [10] | Ki [10]

CC(C)NC[C@H](O)COc1cccc2[nH]ccc12
Not Active: IC50 [1] | IC50 [2] | Ki [2] | IC50 [3] | Ki [3] | IC50 [4] | IC50 [5] | IC50 [6] | IC50 [7] | IC50 [8] | IC50 [9] | IC50 [10] | Ki [10]

c1ccc2c(c1)cc1ccc3cccc4ccc2c1c34
Not Active: IC50 [1] | IC50 [2] | Ki [2] | IC50 [3] | Ki [3] | IC50 [4] | IC50 [5] | IC50 [6] | IC50 [7] | IC50 [8] | IC50 [9] | IC50 [10] | Ki [10]

CC=CC(=O)N(CC)c1ccccc1C
Not Active: IC50 [1] | IC50 [2] | Ki [2] | IC50 [3] | Ki [3] | IC50 [4] | IC50 [5] | IC50 [6] | IC50 [7] | IC50 [8] | IC50 [9] | IC50 [10] | Ki [10]

CC(/C=C1\SC(=S)N(CC(=O)O)C1=O)=C\c1ccccc1
Not Active: IC50 [1] | IC50 [2] | Ki [2] | IC50 [3] | Ki [3] | IC50 [4] | IC50 [5] | IC50 [6] | IC50 [7] | IC50 [8] | IC50 [9] | IC50 [10] | Ki [10]

O=C(O)c1cn(C2CC2)c2cc(N3CCNCC3)c(F)cc2c1=O [CIPROFLOXACIN]
Not Active: IC50 [1] | IC50 [3] | Ki [3] | IC50 [4] | IC50 [5] | IC50 [6] | IC50 [7] | IC50 [8] | IC50 [9] | IC50 [10] | Ki [10]

COc1ccc([C@@H]2Sc3ccccc3N(CCN(C)C)C(=O)[C@@H]2OC(C)=O)cc1 [DILTIAZEM]
Not Active: IC50 [1] | IC50 [3] | Ki [3] | IC50 [4] | IC50 [5] | IC50 [6] | IC50 [7] | IC50 [8] | IC50 [9] | IC50 [10] | Ki [10]

Cc1c(-c2ccccc2)oc2c(C(=O)OCCN3CCCCC3)cccc2c1=O [FLAVOXATE]
Not Active: IC50 [1] | IC50 [3] | Ki [3] | IC50 [4] | IC50 [5] | IC50 [6] | IC50 [7] | IC50 [8] | IC50 [9] | IC50 [10] | Ki [10]

O=C1OCCN1/N=C/c1ccc([N+](=O)[O-])o1 [FURAZOLIDONE]
Not Active: IC50 [1] | IC50 [3] | Ki [3] | IC50 [4] | IC50 [5] | IC50 [6] | IC50 [7] | IC50 [8] | IC50 [9] | IC50 [10] | Ki [10]
